Data set [1] has as its system lipid peroxide in rat brain homogenate. Briefly: Antioxidative action on lipids in vitro (lipid peroxide activity in rat brain homogenate, thiobarbituric acid method). The class given is biochemical. The conditions noted are these: 500 μM cysteine, 5 μM ferrous sulfate, 100 mM KCl, 30 minutes at 37° C., malondialdehyde, read-out: 50% inhibitory concentration of anti-lipid peroxide action in vitro (IC50). The method, then:
(§1) The antioxidative action on lipids in vitro of the compounds according to the present invention was evaluated in accordance with the method of Malvy et al. (Malvy C. et al.,) described in Biochemical and Biophysical Research Communications, 1980, vol. 95, pp. 734 to 737,) by measuring the lipid peroxide activity in a rat brain homogenate. Namely, the rat brain was removed followed by the addition of five volumes of an aqueous solution of phosphate buffered saline (pH 7.4) (hereinafter, abbreviated as PBS) to the brain while cooling with water, homogenizing with a Teflon homogenizer, and centrifuging for 20 minutes at 10,000 g to collect the supernatant as a brain homogenate. 500 μM cysteine, 5 μM ferrous sulfate, and 100 mM KCl were added to the resulting brain homogenate followed by incubating for 30 minutes at 37° C. and measuring the malondialdehyde that formed due to decomposition of lipid peroxide using the thiobarbituric acid method. The 50% inhibitory concentrations (hereinafter, abbreviated as IC50) of the compounds according to the present invention were then determined from the measured values.

Data set [2] deals with lipid peroxide in homogenates of brain, heart and kidneys. Briefly: Tissue migration: antioxidative action on lipids ex vivo after intraperitoneal administration. It is filed as in vivo. The note with it: Rattus norvegicus, ip, 0.5 h, male SD rats, 100 mg/kg intraperitoneally, 30 minutes after administration. The method, then:
as §1
Tissue migration of the compounds according to the present invention was evaluated by measuring the antioxidative action on lipids ex vivo. A test compound dissolved or suspended in an aqueous physiological saline solution or aqueous physiological saline solution containing 1% polyethylene hardened castor oil (Nikko Chemicals: Nikkol HCO-60) was intraperitoneally administered to male SD rats (age: 6 weeks) (purchased from Japan SLC) in groups of 3 animals each at a dose of 100 mg/kg. The animals were sacrificed by exsanguination by severing the carotid artery 30 minutes after administration followed by removing the brain, heart and kidneys. The lipid peroxide activity of homogenates of each tissue was measured using the method described in Example 4. The inhibition rates of the test compounds in each tissue were determined from the amounts of lipid peroxide formed in a control group (physiological saline dose group) and test compound groups.

For data set [3], the system named is mice administered ferrous chloride into the spinal subarachnoid cavity. Briefly: Antioxidative action in vivo: abnormal behavior and mortality after ferrous chloride into the spinal subarachnoid cavity. The arrangement: species or system mouse. The conditions noted are these: male Slc:ICR mice, 30 minutes before ferrous chloride, score after 60 minutes. The method, then:
The antioxidative action in vivo of the compounds according to the present invention was evaluated according to the method described in the Journal of Medical Chemistry (J. Med. Chem., 1997, vol. 40, pp. 559 to 573) based on the inhibitory effects on abnormal behavior and mortality rate following administration of ferrous chloride into the spinal subarachnoid cavity of mice. Male Slc:ICR mice (age: 5 weeks) (purchased from Japan SLC) were used in groups of 3 to 7 animals each, and were administered 5 μl of aqueous physiological saline solution containing 50 mM ferrous chloride into the spinal column between the 5th and 6th lumbar vertebra. […] The test compounds were dissolved or suspended in an aqueous physiological saline solution or an aqueous physiological saline solution containing 1% polyethylene hardened castor oil (manufactured by Nikko Chemicals CO., LTD. under the name of NIKKOL HCO-60), and administered intraperitoneally or orally 30 minutes before the administration of ferrous chloride. The 50% inhibitory dose (hereinafter, abbreviated as ID50) of each test compound was determined from the score of a control group (physiological saline treated group) and the score of each test compound treated group.

In data set [4] the test system is lipid peroxides in retina homogenate. Nature of the data set: Retina migration: formation of lipid peroxides in retina ex vivo after oral administration. The note with it: male SD rats, retinas removed 30 minutes later, auto-oxidized 1 hour at 37° C. The arrangement: species or system rat. Here is the method:
The retina migration of the compounds according to the present invention was evaluated. The test compounds dissolved or suspended in 0.1 N aqueous hydrochloric acid solution or 1% polyethylene hardened castor oil (Nikkol HCO-60) solution were orally administered to male SD rats (age: 6 weeks) in groups of three animals each followed by removing both eyes 30 minutes later and separating the retinas while cooling with ice. The retinas were homogenized with a Polytron Microhomogenizer (NS-310E: manufactured by Niti-On Medical and Physical Instruments) in 0.1 M Tris-HCl buffer (pH 7.4) while cooling with ice to prepare 5% homogenates. The homogenates were then auto-oxidized for 1 hour at 37° C., and the amounts of lipid peroxide that formed were quantified using the thiobarbituric acid method (Masugi, et al., Vitamin, 51, 21 to 29, 1977).

The nature of data set [5]: Acute oral toxicity in mice. The note with it: mouse, in vivo; male mice, single oral dose, observed for 7 days. From the text:
A single dose of the test compounds according to the present invention was orally administered to male mice followed by observing for 7 days to determine the mortality rate. The compound indicated below was used for Control Drug 3.

Data set [6] concerns 66 kDa protein in rat retina. Nature of the data set: Inhibitory action on increases in 66 kDa protein in UV-A irradiated rat retina. The class given is in vivo. The note with it: male Wistar rats, 100 mg/kg p.o. 30 minutes before UV-A (12 mW/cm^2, 30 minutes); retinas 48 hours after irradiation; N = 3. The method, then:
The inhibitory action of the compound according to the present invention on increases in 66 kDa protein in rat retina irradiated with UV light was evaluated. The test compound was dissolved or suspended in 0.1 N aqueous hydrochloric acid solution or 1% polyethylene hardened castor oil (Nikkol HCO-60) and orally administered to male Wistar rats (age: 7-9 weeks) followed 30 minutes later by irradiation of the right eye with UV-A (12 mW/cm^2) for 30 minutes using a UV spot light source. In addition, the left eye was not irradiated and used as a control. The rats were housed in an environment blocked from interior light both during UV-A irradiation and for 2 hours before and after irradiation. The retinas were separated 48 hours after irradiation and 5% homogenates were prepared using the same method as described in Example 4. Changes in retina protein were determined by SDS-polyacrylamide gel electrophoresis in accordance with the method of Lammli (Nature, […], 680 to 685, 1970). […] Subsequently, the gel was decolored with a mixture of ethanol, acetic acid, and water (25:8:65) and the 66 kDa protein following electrophoresis was analyzed by densitrography. The amount of protein in the samples was determined using the Lowry method.

The target of data set [7] is T1, 5-lipoxygenase (5-LO) (Homo sapiens, UniProt P09917).
T1 construct: human peripheral blood mononuclear cells; endogenous in cells; host or cells: human peripheral blood mononuclear cells
T1 sequence (P09917 1-674): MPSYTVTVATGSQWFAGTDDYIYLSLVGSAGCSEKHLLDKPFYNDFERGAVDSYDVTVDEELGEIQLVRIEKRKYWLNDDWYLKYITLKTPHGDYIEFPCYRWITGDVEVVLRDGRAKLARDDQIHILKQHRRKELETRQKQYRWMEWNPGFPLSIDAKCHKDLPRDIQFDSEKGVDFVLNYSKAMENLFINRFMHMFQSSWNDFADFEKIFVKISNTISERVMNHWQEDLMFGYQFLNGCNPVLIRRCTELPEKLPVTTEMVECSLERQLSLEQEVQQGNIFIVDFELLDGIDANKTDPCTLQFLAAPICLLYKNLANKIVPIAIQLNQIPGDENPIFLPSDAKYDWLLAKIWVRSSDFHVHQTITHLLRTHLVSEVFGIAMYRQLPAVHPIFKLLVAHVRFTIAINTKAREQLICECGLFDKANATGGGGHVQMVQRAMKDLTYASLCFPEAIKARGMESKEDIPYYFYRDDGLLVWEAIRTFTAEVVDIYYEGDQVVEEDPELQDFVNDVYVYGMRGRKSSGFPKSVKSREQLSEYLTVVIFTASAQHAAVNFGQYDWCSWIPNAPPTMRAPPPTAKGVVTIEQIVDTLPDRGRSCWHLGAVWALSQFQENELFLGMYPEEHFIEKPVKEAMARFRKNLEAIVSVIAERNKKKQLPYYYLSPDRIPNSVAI
Nature of the data set: 5-LO inhibitory activity (leucotriene B4 formation in human peripheral blood mononuclear cells, A23187). It is filed as cell-based. The conditions noted are these: 30 μM A23187, leucotriene B4, read-out: Lipoxygenase inhibitory action 50% inhibitory concentration (IC50), 5-LO. The method, then: 5-LO inhibitory activity was measured using a variation of the method of Carter et al. (Carter G. W. et al., J. Pharmacol. Exp. Ther., 256, 929 to 937, 1991). Namely, after pre-incubating (37° C., 15 minutes) in Hank's solution human peripheral blood mononuclear cells and a test compound dissolved in DMSO (final concentration: 1%), 30 μM A23187 was added and the resulting solution was additionally incubated (37° C., 30 minutes). The resulting leucotriene B4 that formed was quantified by enzyme immunoassay, and the 50% formation inhibitory concentration (μM) of the test compound with respect to 5-LO was calculated from that value.

Data set [8] has as its target T2, 15-lipoxygenase (15-LO) (Oryctolagus cuniculus, UniProt P12530).
T2 construct: 15-LO obtained from rabbit reticulocytes; from tissue; host or cells: rabbit reticulocytes
T2 sequence (P12530 1-663): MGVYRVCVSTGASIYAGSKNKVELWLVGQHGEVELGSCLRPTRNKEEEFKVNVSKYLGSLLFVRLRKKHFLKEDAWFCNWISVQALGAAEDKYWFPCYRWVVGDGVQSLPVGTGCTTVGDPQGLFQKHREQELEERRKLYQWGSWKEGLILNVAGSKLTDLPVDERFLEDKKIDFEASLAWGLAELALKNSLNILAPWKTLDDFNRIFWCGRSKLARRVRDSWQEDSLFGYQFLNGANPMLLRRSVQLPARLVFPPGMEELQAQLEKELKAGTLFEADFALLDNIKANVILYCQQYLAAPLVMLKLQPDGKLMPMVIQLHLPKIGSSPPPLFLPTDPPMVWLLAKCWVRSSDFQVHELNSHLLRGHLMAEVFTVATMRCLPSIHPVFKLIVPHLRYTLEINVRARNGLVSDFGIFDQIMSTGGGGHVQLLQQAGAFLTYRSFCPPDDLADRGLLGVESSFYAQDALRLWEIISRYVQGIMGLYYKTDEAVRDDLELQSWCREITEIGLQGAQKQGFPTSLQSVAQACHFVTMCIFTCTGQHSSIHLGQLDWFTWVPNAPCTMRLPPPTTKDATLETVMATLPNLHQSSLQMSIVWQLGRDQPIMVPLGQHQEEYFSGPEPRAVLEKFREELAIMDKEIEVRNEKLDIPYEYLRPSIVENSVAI
Briefly: 15-LO inhibitory activity (15-LO from rabbit reticulocytes, linoleic acid). The class given is biochemical. The conditions noted are these: 256 μM linoleic acid, 4° C., read-out: Lipoxygenase inhibitory action 50% inhibitory concentration (IC50), 15-LO. Here is the method: 15-LO inhibitory activity was measured using a variation of the method of Auerbach et al. (Auerbach B. J. et al., Anal. Biochem., 201, 375 to 380, 1992). Namely, after pre-incubating (4° C., 15 minutes) in phosphate buffer (pH 7.4) 15-LO obtained from rabbit reticulocytes and a test compound dissolved in DMSO (final concentration: 1%), 256 μM linoleic acid was added and the resulting solution was additionally incubated (4° C., 10 minutes). The resulting 15-HETE that formed was quantified by spectrophotometry (OD660 nm), and the 50% formation inhibitory concentration (μM) of the test compound with respect to 15-LO was calculated from that value.

The mark [9] stands for this setting: brain homogenate, read-out: Inhibition rate of ex vivo anti-lipid peroxide action, Brain.
Where [10] appears, read: heart homogenate, read-out: Inhibition rate of ex vivo anti-lipid peroxide action, Heart.
Where [11] appears, read: kidney homogenate, read-out: Inhibition rate of ex vivo anti-lipid peroxide action, Kidney.

The values that follow come from patent US7652155B2, “Diamine derivative, production process therefor and antioxidant” (Nippon Soda Co., Ltd., priority 2003, dated 2010).

Structures can show the parent of a compound that is named as a salt. Where two headings read alike, the source gives them in different places. A value given as a limit tells only on which side of the number the result lay.

In general, inhibition refers to the drop in the measured response relative to a control, in per cent. Broadly, the LD50 is the dose at which mortality reaches 50%. The low end stands for greater toxicity, the high end for lower toxicity. Consider `Cc1c(C)c2c(c(CN)c1N)CCC(C)(C)O2` [Compound No. 2, 2,2,7,8-tetramethyl-5-aminomethyl-6-aminochroman•-dihydrochloride], for which the IC50 in data set [1] came out at 340 nM. For the same compound, the values for the inhibition at 100 mg/kg in data set [2] (setting [9]), in data set [2] (setting [10]) and in data set [2] (setting [11]) were 98%, 96% and 97%, respectively. In data set [3], the “Antioxidative action in vivo 50% inhibitory dose (ID50), Intraperitoneal administration” value is given as 2.6 mg/kg. For the same compound, the “Antioxidative action in vivo 50% inhibitory dose (ID50), Oral administration” value in data set [3] is on record as 12 mg/kg. Besides, the “Inhibitory effect on formation of lipid peroxides in retina ex vivo 30% inhibitory concentration (ID30, oral administration)” value in data set [4] turned out to be 6.9 mg/kg. This compound also registered an LD50 at 7 days in data set [5] above 1000 mg/kg.

`Cc1c(C)c2c(c(CN)c1N)CC(C)(C)O2` [Compound No. 1]: the inhibition at 100 mg/kg in data set [2] (setting [9]) came out at 93%; in data set [2] (setting [10]), 81%; in data set [2] (setting [11]) it was 83%. The “Antioxidative action in vivo 50% inhibitory dose (ID50), Intraperitoneal administration” value in data set [3] is reported as 1.8 mg/kg. In data set [3], the “Antioxidative action in vivo 50% inhibitory dose (ID50), Oral administration” value was 6 mg/kg. Further, the “Inhibitory effect on formation of lipid peroxides in retina ex vivo 30% inhibitory concentration (ID30, oral administration)” value in data set [4] turned out to be 16 mg/kg. Moreover, the “Ratio of 66 kDa protein in UV-irradiated rat retina (right eye: irradiated/left eye: non-irradiated)” value in data set [6] stood at 1.45. Further, the IC50 in data set [7] was above 10000 nM; in data set [8] it was 3740 nM. The LD50 at 7 days in data set [5] is above 1000 mg/kg.

Consider `Cc1c(C)c2c(c(C)c1N)CC(C)(CN1CCC(c3ccccc3)CC1)O2` (centres unmarked) [Control Drug 2, reference compound], for which the IC50 in data set [7] is above 10000 nM. This compound also came in with a 50% lethal dose (LD50) at 7 days in data set [5] below 300 mg/kg.

Consider `Cc1c(C)c2c(c(N)c1N)CC(C)(C)O2` [Control drug 1, reference compound], for which, in data set [1], the IC50 was found to be 1400 nM. Further, the inhibition at 100 mg/kg in data set [2] (setting [9]) was 94%; in data set [2] (setting [10]) it was 84%; in data set [2] (setting [11]), 87%. For the same compound, the “Antioxidative action in vivo 50% inhibitory dose (ID50), Intraperitoneal administration” value in data set [3] is above 30 mg/kg. Also, the “Antioxidative action in vivo 50% inhibitory dose (ID50), Oral administration” value in data set [3] was above 30 mg/kg.
